Reference: patent US20200399318A1, “PEPTIDE INHIBITORS OF PHOSPHOGLYCERATE MUTASE AND METHODS OF USE” (priority 2016, published 2020)
Where a SMILES comes first, the peptide text is derived from it. Bridges are numbered along the chain shown (N, C = ends). [ ]: non-standard residue; d: D form.

Legend:
B. malayi iPGM = B. malayi iPGM (Brugia malayi, UniProt Q4VWF8); test: biochemical
O. volvulus iPGM = O. volvulus iPGM (Onchocerca volvulus, UniProt I6LDA6); test: biochemical
D. immitis iPGM = assay type: biochemical, Dirofilaria immitis
E. coli iPGM = E. coli iPGM (Escherichia coli, UniProt P37689); test: biochemical
[1] = read-out: B. malayi iPGM Max Inhibition
[2] = read-out: O. volvulus iPGM Max Inhibition
[3] = read-out: E. coli iPGM Max Inhibition

Sequence of E. coli iPGM (P37689 whole entry, looked up): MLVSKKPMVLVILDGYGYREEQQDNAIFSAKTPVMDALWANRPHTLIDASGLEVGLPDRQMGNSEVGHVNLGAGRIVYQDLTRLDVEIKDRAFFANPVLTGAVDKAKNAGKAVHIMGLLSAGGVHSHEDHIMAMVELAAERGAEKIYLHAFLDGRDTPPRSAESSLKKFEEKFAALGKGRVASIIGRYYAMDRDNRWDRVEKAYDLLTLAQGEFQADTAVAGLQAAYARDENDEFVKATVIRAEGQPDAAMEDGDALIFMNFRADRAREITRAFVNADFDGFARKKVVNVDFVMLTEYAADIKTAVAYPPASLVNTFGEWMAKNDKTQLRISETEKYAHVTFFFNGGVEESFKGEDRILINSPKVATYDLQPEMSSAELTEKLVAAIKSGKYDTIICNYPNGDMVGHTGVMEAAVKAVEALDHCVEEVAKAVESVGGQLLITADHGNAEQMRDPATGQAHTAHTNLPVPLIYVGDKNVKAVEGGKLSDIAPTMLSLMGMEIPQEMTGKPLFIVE
Sequence of B. malayi iPGM (Q4VWF8 whole entry, looked up): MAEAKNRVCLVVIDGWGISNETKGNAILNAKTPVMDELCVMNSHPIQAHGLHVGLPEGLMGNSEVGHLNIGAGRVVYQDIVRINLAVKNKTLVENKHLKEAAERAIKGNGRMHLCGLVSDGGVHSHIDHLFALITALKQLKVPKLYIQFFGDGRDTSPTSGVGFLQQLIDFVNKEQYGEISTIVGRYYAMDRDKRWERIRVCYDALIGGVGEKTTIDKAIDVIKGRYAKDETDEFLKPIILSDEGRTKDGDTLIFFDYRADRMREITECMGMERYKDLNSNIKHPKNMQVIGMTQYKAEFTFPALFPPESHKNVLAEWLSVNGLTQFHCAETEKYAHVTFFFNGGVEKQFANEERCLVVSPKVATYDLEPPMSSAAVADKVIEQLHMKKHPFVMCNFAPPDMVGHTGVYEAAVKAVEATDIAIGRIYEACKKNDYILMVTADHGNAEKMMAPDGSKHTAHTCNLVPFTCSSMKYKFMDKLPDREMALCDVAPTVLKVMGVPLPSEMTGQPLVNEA
Sequence of O. volvulus iPGM (I6LDA6 whole entry, looked up): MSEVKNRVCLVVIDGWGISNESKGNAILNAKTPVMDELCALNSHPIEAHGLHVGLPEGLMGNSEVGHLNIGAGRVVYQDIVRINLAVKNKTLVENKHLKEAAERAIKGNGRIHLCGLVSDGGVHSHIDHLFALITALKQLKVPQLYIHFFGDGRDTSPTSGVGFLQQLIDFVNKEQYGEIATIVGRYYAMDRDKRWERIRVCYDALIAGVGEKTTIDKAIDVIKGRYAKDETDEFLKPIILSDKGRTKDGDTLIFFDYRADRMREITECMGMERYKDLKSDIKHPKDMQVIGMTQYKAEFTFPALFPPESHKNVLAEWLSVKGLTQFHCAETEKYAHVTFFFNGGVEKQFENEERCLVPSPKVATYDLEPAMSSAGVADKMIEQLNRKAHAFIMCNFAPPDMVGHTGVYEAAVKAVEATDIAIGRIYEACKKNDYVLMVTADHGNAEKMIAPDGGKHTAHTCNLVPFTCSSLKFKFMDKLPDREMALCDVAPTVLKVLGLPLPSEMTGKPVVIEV

| Compound | Emax (B. malayi iPGM; [1]) [%] | O. volvulus iPGM PIC50, M (O. volvulus iPGM) [M] | Emax (O. volvulus iPGM; [2]) [%] | D. immitis iPGM Max Inhibition (D. immitis iPGM) | Emax (E. coli iPGM; [3]) [%] | B. malayi iPGM PIC50, M (B. malayi iPGM) [M] | E. coli iPGM PIC50, M (E. coli iPGM) [M] | pIC50 B. malayi iPGM (B. malayi iPGM) | pIC50 O. volvulus iPGM (O. volvulus iPGM) | inhibition at 0.0005 µM (B. malayi iPGM; [1]) [%] | inhibition at 0.0005 µM (O. volvulus iPGM; [2]) [%] | inhibition at 0.0005 µM (E. coli iPGM; [3]) [%] | pIC50 E. coli iPGM (E. coli iPGM) |
| --- | --- | --- | --- | --- | --- | --- | --- | --- | --- | --- | --- | --- | --- |
| CC[C@H](C)[C@@H]1NC(=O)[C@H](CCCNC(=N)N)NC(=O)[C@H](Cc2ccccc2)NC(=O)[C@@H]2CCCN2C(=O)[C@H](CC(N)=O)NC(=O)[C@H](C)NC(=O)[C@H](CC(C)C)NC(=O)[C@H]([C@@H](C)O)NC(=O)[C@H]([C@@H](C)O)NC(=O)[C@H](Cc2ccc(O)cc2)NC(=O)CSC[C@@H](C(=O)NCC(N)=O)NC(=O)[C@H](Cc2c[nH]cn2)NC(=O)[C@H](CC(C)C)NC1=O [Ce-4] ({CH2CO}-YTTLANPFRILHCG-NH2; thioether N-13) | 2.9 ± 3.3 | 5.37 ± 0.14 | 23 ± 35.7 | −22.1 ± 35.5 | 44.3 ± 1.9 |  |  |  |  |  |  |  |  |
| CC(C)C[C@@H]1NC(=O)[C@@H](Cc2ccc(O)cc2)NC(=O)CSC[C@@H](C(=O)N[C@@H](CC(N)=O)C(=O)N[C@H](C(=O)N[C@@H](CS)C(N)=O)[C@@H](C)O)NC(=O)[C@H](CC(N)=O)NC(=O)[C@@H]2CCCN2C(=O)[C@H](Cc2c[nH]c3ccccc23)NC(=O)[C@H](CCC(=O)O)NC1=O [Bm-4a] ({CH2CO}-[dY]LEWPNCNTC-NH2; thioether N-7) | 88 ± 0.4 | 6.14 ± 0.62 | 87.8 ± 4.1 | −90.5 ± 1.5 | 78.3 ± 3.4 | 6.31 ± 0.29 | 5.58 ± 0.19 |  |  |  |  |  |  |
| CC(C)C[C@@H]1NC(=O)[C@@H](Cc2ccc(O)cc2)NC(=O)CSC[C@@H](C(=O)N[C@@H](CC(N)=O)C(=O)N[C@H](C(=O)N[C@@H](CS)C(=O)NCC(N)=O)[C@@H](C)O)NC(=O)[C@H](CC(N)=O)NC(=O)[C@@H]2CCCN2C(=O)[C@H](Cc2c[nH]c3ccccc23)NC(=O)[C@H](CCC(=O)O)NC1=O [Bm-4] ({CH2CO}-[dY]LEWPNCNTCG-NH2; thioether N-7) | 86.3 ± 1.4 |  | 85.7 ± 6.5 | −88.1 ± 0.8 | 76.3 ± 8.3 |  | 5.56 ± 0.16 | 6.24 | 6.10 |  |  |  |  |
| CC(C)C[C@H](NC(=O)[C@H](Cc1ccc(O)cc1)NC(=O)[C@@H]1CSCC(=O)N[C@H](Cc2ccc(O)cc2)C(=O)N[C@@H](CC(=O)O)C(=O)N[C@@H](Cc2ccc(O)cc2)C(=O)N2CCC[C@H]2C(=O)NCC(=O)N[C@@H](CC(=O)O)C(=O)N[C@@H](Cc2ccc(O)cc2)C(=O)N1)C(=O)N[C@@H](Cc1ccc(O)cc1)C(=O)NCC(=O)N[C@H](C(=O)N[C@@H](CO)C(=O)NCC(N)=O)[C@@H](C)O [Ce-2S] | 97.7 ± 0.6 |  | 97 ± 1.6 |  | 105 ± 2.5 |  |  |  |  | 77.1 ± 7.5 | 69.8 ± 9.3 | 68.1 ± 8.9 |  |
| CC(C)C[C@@H]1NC(=O)[C@@H](Cc2ccc(O)cc2)NC(=O)CSC[C@@H](C(=O)N[C@@H](CO)C(=O)N[C@H](C(=O)N[C@@H](CS)C(=O)NCC(N)=O)[C@@H](C)O)NC(=O)[C@H](CC(N)=O)NC(=O)[C@@H]2CCCN2C(=O)[C@H](Cc2c[nH]c3ccccc23)NC(=O)[C@H](CC(=O)O)NC1=O [Bm-5] ({CH2CO}-[dY]LDWPNCSTCG-NH2; thioether N-7) | 84.7 ± 1.2 | 5.99 ± 0.69 | 83.1 ± 7.3 | −87.1 ± 3.2 | 74.3 ± 9.5 |  | 5.54 ± 0.20 | 6.16 |  |  |  |  |  |
| C[C@@H](O)[C@H](NC(=O)[C@H](CO)NC(=O)[C@@H]1CSCC(=O)N[C@H](Cc2ccc(O)cc2)C(=O)N2CCC[C@H]2C(=O)N[C@@H](CCC(=O)O)C(=O)N[C@@H](Cc2c[nH]c3ccccc23)C(=O)N2CCC[C@H]2C(=O)N[C@@H](CC(N)=O)C(=O)N1)C(=O)N[C@@H](CS)C(=O)NCC(N)=O [Bm-6] ({CH2CO}-[dY]PEWPNCSTCG-NH2; thioether N-7) | 86.8 ± 0.6 | 6.08 ± 0.53 | 86 ± 3.2 | −90.2 ± 1.2 | 77.4 ± 4.3 |  | 5.55 ± 0.07 | 6.16 |  |  |  |  |  |
| NC(=O)[C@H](Cc1ccc(O)cc1)NC(=O)[C@@H]1CSCC(=O)N[C@H](Cc2ccc(O)cc2)C(=O)N[C@@H](CC(=O)O)C(=O)N[C@@H](Cc2ccc(O)cc2)C(=O)N2CCC[C@H]2C(=O)NCC(=O)N[C@@H](CC(=O)O)C(=O)N[C@@H](Cc2ccc(O)cc2)C(=O)N1 [Ce-2f] ({CH2CO}-[dY]DYPGDYCY-NH2; thioether N-8) | 14.8 |  | -4.3 |  | 79.6 |  |  |  |  |  |  |  |  |
| CC[C@H](C)[C@@H]1NC(=O)[C@H](CCCNC(=N)N)NC(=O)[C@H](Cc2ccccc2)NC(=O)[C@@H]2CCCN2C(=O)[C@H](CC(N)=O)NC(=O)[C@H](C)NC(=O)[C@H](CC(C)C)NC(=O)[C@H]([C@@H](C)O)NC(=O)[C@H]([C@@H](C)CC)NC(=O)[C@H](Cc2ccc(O)cc2)NC(=O)CSC[C@@H](C(=O)NCC(N)=O)NC(=O)[C@H](Cc2c[nH]cn2)NC(=O)[C@H](CC(C)C)NC1=O [Ce-3] ({CH2CO}-YITLANPFRILHCG-NH2; thioether N-13) | 13.3 ± 2 | 5.26 ± 0.18 | 22.9 ± 30.8 | −30.1 ± 32.2 | 91.4 ± 1.3 |  | 6.27 ± 0.10 |  |  |  |  |  |  |
| CC(C)[C@@H]1NC(=O)[C@H](C)NC(=O)[C@@H](Cc2ccc(O)cc2)NC(=O)CSC[C@@H](C(=O)N[C@@H](CCCNC(=N)N)C(=O)N[C@H](C(=O)N[C@@H](CS)C(=O)NCC(N)=O)[C@@H](C)O)NC(=O)[C@H](CC(N)=O)NC(=O)[C@@H]2CCCN2C(=O)[C@H](Cc2c[nH]c3ccccc23)NC1=O [Bm-7] ({CH2CO}-[dY]AVWPNCRTCG-NH2; thioether N-7) | 74 ± 10.1 | 5.37 ± 0.52 | 78 ± 19.9 | −83.1 ± 9.7 | 69.7 ± 12.3 |  | 5.12 ± 0.09 | 5.28 |  |  |  |  |  |
| CC(C)C[C@H](NC(=O)[C@H](Cc1ccc(O)cc1)NC(=O)[C@@H]1CSCC(=O)N[C@H](Cc2ccc(O)cc2)C(=O)N[C@@H](CC(=O)O)C(=O)N[C@@H](Cc2ccc(O)cc2)C(=O)N2CCC[C@H]2C(=O)NCC(=O)N[C@@H](CC(=O)O)C(=O)N[C@@H](Cc2ccc(O)cc2)C(=O)N1)C(=O)N[C@@H](Cc1ccc(O)cc1)C(=O)NCC(=O)N[C@H](C(N)=O)[C@@H](C)O [Ce-2b] | 91.8 ± 5.4 |  | 80.1 ± 2.1 |  | 95.3 ± 9 |  |  |  |  |  |  |  |  |
| CC(C)C[C@H](NC(=O)[C@H](Cc1ccc(O)cc1)NC(=O)[C@@H]1CSCC(=O)N[C@H](Cc2ccc(O)cc2)C(=O)N[C@@H](CC(=O)O)C(=O)N[C@@H](Cc2ccc(O)cc2)C(=O)N2CCC[C@H]2C(=O)NCC(=O)N[C@@H](CC(=O)O)C(=O)N[C@@H](Cc2c[nH]cn2)C(=O)N1)C(=O)N[C@@H](Cc1ccc(O)cc1)C(=O)NCC(=O)N[C@H](C(=O)N[C@@H](CS)C(=O)NCC(N)=O)[C@@H](C)O [Ce-1] | 94 ± 3.4 |  | 95.4 ± 2.6 |  | 96.5 ± 4.2 |  |  |  |  |  |  |  |  |
| CC(=O)N[C@H](Cc1ccc(O)cc1)C(=O)N[C@@H](CC(=O)O)C(=O)N[C@@H](Cc1ccc(O)cc1)C(=O)N1CCC[C@H]1C(=O)NCC(=O)N[C@@H](CC(=O)O)C(=O)N[C@@H](Cc1ccc(O)cc1)C(=O)N[C@@H](CO)C(=O)N[C@@H](Cc1ccc(O)cc1)C(=O)N[C@@H](CC(C)C)C(=O)N[C@@H](Cc1ccc(O)cc1)C(=O)NCC(=O)N[C@H](C(=O)N[C@@H](CS)C(=O)NCC(N)=O)[C@@H](C)O [Ce-L2] (Ac-[dY]DYPGDYSYLYGTCG-NH2) | 48.2 ± 18.2 |  | 40.2 ± 27.6 | −44 ± 22.6 | 95.1 ± 5.2 | 4.89 ± 0.21 |  |  |  |  |  |  | 5.88 |
| CC[C@H](C)[C@@H]1NC(=O)[C@H](CCC(=O)O)NC(=O)[C@@H]2CCCN2C(=O)[C@H](C)NC(=O)[C@H](CC(N)=O)NC(=O)[C@@H]2CCCN2C(=O)[C@H](Cc2c[nH]c3ccccc23)NC(=O)[C@H](CO)NC(=O)[C@@H](Cc2ccc(O)cc2)NC(=O)CSC[C@@H](C(=O)N[C@@H](CS)C(=O)NCC(N)=O)NC(=O)[C@H](CCCCN)NC(=O)[C@H](Cc2c[nH]c3ccccc23)NC1=O [Bm-1] ({CH2CO}-[dY]SWPNAPEIWKCCG-NH2; thioether N-12) | 82.8 ± 0.9 | 5.88 ± 0.53 | 82.1 ± 5.4 | −85.9 ± 0.2 | 60.6 ± 9 |  |  | 5.89 |  |  |  |  | 5.31 |
| CC(C)C[C@H](NC(=O)[C@H](Cc1ccc(O)cc1)NC(=O)[C@@H]1CSCC(=O)N[C@H](Cc2ccc(O)cc2)C(=O)N[C@@H](CC(=O)O)C(=O)N[C@@H](Cc2ccc(O)cc2)C(=O)N2CCC[C@H]2C(=O)NCC(=O)N[C@@H](CC(=O)O)C(=O)N[C@@H](Cc2ccc(O)cc2)C(=O)N1)C(N)=O [Ce-2e] ({CH2CO}-[dY]DYPGDYCYL-NH2; thioether N-8) | 82.7 ± 6.1 |  | 55.5 ± 1.4 |  | 94.5 ± 9 |  |  |  |  |  |  |  |  |
| CC(C)C[C@H](NC(=O)[C@H](Cc1ccc(O)cc1)NC(=O)[C@@H]1CSCC(=O)N[C@H](Cc2ccc(O)cc2)C(=O)N[C@@H](CC(=O)O)C(=O)N[C@@H](Cc2ccc(O)cc2)C(=O)N2CCC[C@H]2C(=O)NCC(=O)N[C@@H](CC(=O)O)C(=O)N[C@@H](Cc2ccc(O)cc2)C(=O)N1)C(=O)N[C@@H](Cc1ccc(O)cc1)C(=O)NCC(N)=O [Ce-2c] | 88.2 |  | 78.4 |  | 89.1 |  |  |  |  |  |  |  |  |
